Experimental findings from patent publication US9656962B2, “Ring-contracted morphinans and the use thereof” (Purdue Pharma L.P., priority 2013, dated 2017) are described below.

Format in all cases: biochemical
The target in one test is κ-opioid receptor (Homo sapiens (Human), UniProt P41145). The experiment in a line: κ-opioid receptor [35S]GTPγS functional assay, U-2 OS cells (Table 5). The note with it: for Emax: relative to U69,593; for EC50: κ GTP. How it is done:
κ-Opioid Receptor Functional Assay Procedures: Functional [^35S]GTPγS binding assays were conducted as follows. κ opioid receptor membrane solution was prepared by sequentially adding final concentrations of 0.026 μg/μl κ membrane protein (in-house), 10 μg/mL saponin, 3 μM GDP and 0.20 nM [^35S]GTPγS to binding buffer (100 mM NaCl, 10 mM MgCl2, 20 mM HEPES, pH 7.4) on ice. The prepared membrane solution (190 μl/well) was transferred to 96-shallow well polypropylene plates containing 10 μl of 20× concentrated stock solutions of agonist prepared in DMSO. Plates were incubated for 30 min at a temperature of about 25° C. with shaking. Reactions were terminated by rapid filtration onto 96-well Unifilter GF/B filter plates (Perkin Elmer, Shelton, Conn.) using a 96-well tissue harvester (Packard) and followed by three filtration washes with 200 μl ice-cold binding buffer (10 mM NaH2PO4, 10 mM Na2HPO4, pH 7.4). Filter plates were subsequently dried at 50° C. for 2-3 hours. Fifty μl/well scintillation cocktail (Perkin Elmer, Shelton, Conn.) was added and plates were counted in a Packard Top-Count for 1 min/well.
κ GTP Emax (%) is the maximal effect elicited by a compound relative to the effect elicited by U69,593.
The following TABLE 5 provides results on the activity response of certain Compounds of the Invention at the μ- and κ-opioid receptors determined as described above using U-2 OS cells.

In test [1] the target is T1, μ-opioid receptor (Homo sapiens (Human), UniProt P35372). Put plainly: μ-opioid receptor [35S]GTPγS functional assay, HEK-293 or CHO cells (Table 4). The following applies: for Emax: relative to DAMGO; for EC50: μ GTP. How it is done:
(§1) μ-Opioid Receptor Functional Assay Procedures: [^35S]GTPγS functional assays were conducted using freshly thawed μ-receptor membranes prepared in-house from a cell line expressing recombinant μ opioid receptor in a HEK-293, CHO or U-2 OS cell background, or purchased from a commercial source (Perkin Elmer, Shelton, Conn.; or DiscovRx, Fremont, Calif.). Assay reactions were prepared by sequentially adding the following reagents to binding buffer (100 mM NaCl, 10 mM MgCl2, 20 mM HEPES, pH 7.4) on ice (final concentrations indicated): membrane protein (0.026 mg/mL), saponin ([…]), GDP ([…]) and [^35S]GTPγS (0.20 nM; Perkin Elmer, Shelton, Conn.). The prepared membrane solution (190 μl/well) was transferred to 96-shallow well polypropylene plates containing 10 μl of 20× concentrated stock solutions of the agonist [D-Ala^2, N-methyl-Phe^4 Gly-ol^5]-enkephalin (DAMGO) prepared in dimethyl sulfoxide (DMSO). Plates were incubated for 30 min at about 25° C. with shaking Reactions were terminated by rapid filtration onto 96-well Unifilter GF/B filter plates (Perkin Elmer, Shelton, Conn.) using a 96-well tissue harvester (Perkin Elmer, Shelton, Conn.) followed by three filtration washes with 200 μl of ice-cold wash buffer (10 mM NaH2PO4, 10 mM Na2HPO4, pH 7.4). Filter plates were subsequently dried at 50° C. for 2-3 hours. BetaScint scintillation cocktail (Perkin Elmer, Shelton, Conn.) was added (50 μl/well) and plates were counted using a Packard Top-Count for 1 min/well. Data were analyzed using the sigmoidal dose-response curve fitting functions in GraphPad PRISM v. 3.0, or an in-house function for non-linear, sigmoidal dose-response curve-fitting. [^35S]GTPγS functional assays can also be conducted using freshly thawed μ-receptor membranes prepared from a cell line expressing recombinant μ opioid receptor in a CHO-K1 cell background.
(§2) μ GTP Emax (%) is the maximal effect elicited by a compound relative to the effect elicited by DAMGO, a standard μ agonist.
In TABLE 4, activity response of certain Compounds of the Invention to the μ- and κ-opioid receptors was determined as described above for functional assays using HEK-293 or CHO cells.
(In general: GTPγS resists hydrolysis and so accumulates on activated G proteins.)

In test [2] the target is T1, μ-opioid receptor. The experiment in a line: μ-opioid receptor [35S]GTPγS functional assay, U-2 OS cells (Table 5). The following applies: for Emax: relative to DAMGO; for EC50: μ GTP. The procedure: as §1, §2

In general, Emax refers to the maximal effect, on the per cent scale that the assay sets. One may read the EC50 as the concentration at which the effect is half-maximal. Low readings indicate a more potent agent, high ones a less potent agent. `O=C(NCCc1ccccc1)[C@H]1C[C@]23CCN(CC4CC4)[C@H](Cc4ccc(O)cc42)[C@]3(O)C1` [Compound 51, (2S,3aS,4R,9bS)-12-(cyclopropylmethyl)-3a,8-dihydroxy-N-phenethyl-1,2,3,3a,4,5-hexahydro-4,9b-(epiminoethano)cyclo-penta[a]naphthalene-2-carboxamide]: the Emax on κ-opioid receptor was determined as 102 ± 2.31%; at μ-opioid receptor [1], 43 ± 3.06%; at μ-opioid receptor [2] it was 87.7 ± 1.2%. Also, the figures for the EC50 on κ-opioid receptor, at μ-opioid receptor [1] and at μ-opioid receptor [2] were 0.047 nM, 0.00049 ± 4e-05 µM and 0.13 ± 0.015 nM, respectively.

In the case of `O=C(NCc1cc(F)cc(F)c1)[C@@H]1C[C@]23CCN(CC4CC4)[C@H](Cc4ccc(O)cc42)[C@]3(O)C1` [Compound 49, (2R,3aS,4R,9bS)-12-(cyclopropylmethyl)-N-(3,5-difluorobenzyl)-3a,8-dihydroxy-1,2,3,3a,4,5-hexahydro-4,9b-(epimino-ethano)cyclopenta[a]naphthalene-2-carboxamide], the Emax on κ-opioid receptor was 108 ± 4.7%; on μ-opioid receptor [1], 10.5 ± 0.29%; on μ-opioid receptor [2], 42.3 ± 1.45%. Moreover, the concentration giving a half-maximal response (EC50) on κ-opioid receptor amounted to 0.82 ± 0.099 nM; at μ-opioid receptor [1], 0.00617 ± 0.00198 µM; at μ-opioid receptor [2], 3.73 ± 0.23 nM.

Regarding `NC(=O)CNC(=O)[C@@H]1C[C@]23CCN(CC4CC4)[C@H](Cc4ccc(O)cc42)[C@]3(O)C1` [Compound 64, (2R,3aS,4R,9bS)-N-(2-amino-2-oxoethyl)-12-(cyclopropylmethyl)-3a,8-dihydroxy-1,2,3,3a,4,5-hexahydro-4,9b-(epiminoethano)cyclopenta[a]naphthalene-2-carboxamide], the Emax on κ-opioid receptor came out at 101 ± 4.98%; at μ-opioid receptor [1] it was 3.5%; on μ-opioid receptor [2] it was 48.7 ± 0.33%. Besides, the EC50 at κ-opioid receptor is 3.51 ± 0.16 nM; on μ-opioid receptor [1] (bound given in μM), over 20 µM; at μ-opioid receptor [2] it was 6.96 ± 0.27 nM.

With `O=C(NCc1ccc(F)cc1)[C@@H]1C[C@]23CCN(CC4CC4)[C@H](Cc4ccc(O)cc42)[C@]3(O)C1` [Compound 48, (2R,3aS,4R,9bS)-12-(cyclopropylmethyl)-N-(4-fluorobenzyl)-3a,8-dihydroxy-1,2,3,3a,4,5-hexahydro-4,9b-(epimino-ethano)cyclopenta[a]naphthalene-2-carboxamide], the figures for the Emax at κ-opioid receptor, on μ-opioid receptor [1] and on μ-opioid receptor [2] were 106 ± 2.33%, -1% and 40 ± 1.53%, respectively. In addition, the results for the EC50 on κ-opioid receptor, on μ-opioid receptor [1] (bound given in μM) and on μ-opioid receptor [2] were 1.46 ± 0.29 nM, over 20 µM and 3.12 ± 0.27 nM, respectively.

As to `O=C(NCc1ccc(Cl)cc1Cl)[C@H]1C[C@]23CCN(CC4CC4)[C@H](Cc4ccc(O)cc42)[C@]3(O)C1` [Compound 45, (2S,3aS,4R,9bS)-12-(cyclopropylmethyl)-N-(2,4-dichlorobenzyl)-3a,8-dihydroxy-1,2,3,3a,4,5-hexahydro-4,9b-(epimino-ethano)cyclopenta[a]naphthalene-2-carboxamide], the figures for the Emax on κ-opioid receptor, on μ-opioid receptor [1] and at μ-opioid receptor [2] were 100 ± 4.62%, 43.3 ± 4.84% and 87 ± 0.58%, respectively. In addition, the concentration for a half-maximal effect (EC50) on κ-opioid receptor is 0.018 nM; at μ-opioid receptor [1], 0.00038 ± 4.4e-05 µM; at μ-opioid receptor [2] it was 0.14 ± 0.018 nM.

With `CN1CC[C@]23C[C@H](C(N)=O)C[C@@]2(O)[C@H]1Cc1ccc(O)cc13` [Compound 78, (2S,3aS,4R,9bS)-3a,8-dihydroxy-12-methyl-1,2,3,3a,4,5-hexahydro-4,9b-(epiminoethano)cyclopenta-[a]naphthalene-2-carboxamide], the Emax at κ-opioid receptor came out at 89.7 ± 4.84%; at μ-opioid receptor [1], 27.4 ± 1.03%; on μ-opioid receptor [2], 94.7 ± 2.4%. Moreover, the EC50 at κ-opioid receptor was 973 ± 136 nM; on μ-opioid receptor [1], 0.308 ± 0.093 µM; at μ-opioid receptor [2], 89.3 ± 14.6 nM.

As for `O=C(N[C@H]1CC23CCN(CC4CC4)[C@H](Cc4ccc(O)cc42)[C@]3(O)C1)c1ccccc1` (stereo in doubt) [Compound 79, N-((2S,3aS,4R,9bS)-12-(cyclopropyl-methyl)-3a,8-dihydroxy-1,2,3,3a,4,5-hexahydro-4,9b-(epiminoethano)cyclo-penta[a]naphthalen-2-yl)benzamide], the Emax at μ-opioid receptor [1] was -1%. The compound also gave an EC50 on μ-opioid receptor [1] (bound given in μM) of over 20 µM.

As to `O=C([C@@H]1C[C@]23CCN(CC4CC4)[C@H](Cc4ccc(O)cc42)[C@]3(O)C1)N1CCSCC1` [Compound 87, ((2R,3aS,4R,9bS)-12-(cyclopropylmethyl)-3a,8-dihydroxy-1,2,3,3a,4,5-hexahydro-4,9b-(epiminoethano)cyclopenta-[a]naphthalen-2-yl)(thiomorpholino)-methanone], the Emax on μ-opioid receptor [1] worked out at 1%. Also, the EC50 at μ-opioid receptor [1] (bound given in μM) was over 20 µM.

As to `Oc1ccc2c(c1)C13CCN(CC4CC4)[C@H](C2)[C@]1(O)C[C@H](N(Cc1ccccc1)Cc1ccccc1)C3` (stereo in doubt) [Compound 81, (2R,3aS,4R,9bS)-12-(cyclopropyl-methyl)-2-(dibenzylamino)-2,3,4,5-tetrahydro-4,9b-(epiminoethano)-cyclopenta-[a]naphthalene-3a,8(1H)-diol], at μ-opioid receptor [1], the Emax turned out to be 19 ± 1.53%. This compound returned an EC50 on μ-opioid receptor [1] (bound given in μM) of over 20 µM.

For the compound `O=C(Nc1ccccc1)N[C@@H]1CC23CCN(CC4CC4)[C@H](Cc4ccc(O)cc42)[C@]3(O)C1` (stereo in doubt) [Compound 83, 1-((2R,3aS,4R,9bS)-12-(cyclopropyl-methyl)-3a,8-dihydroxy-1,2,3,3a,4,5-hexahydro-4,9b-(epiminoethano)cyclo-penta[a]naphthalen-2-yl)-3-phenylurea], the Emax on μ-opioid receptor [1] turned out to be 0%. The compound also registered an EC50 at μ-opioid receptor [1] (bound given in μM) of over 20 µM.

`O=C(N[C@@H]1CC23CCN(CC4CC4)[C@H](Cc4ccc(O)cc42)[C@]3(O)C1)c1ccccc1` (stereo in doubt) [Compound 82, N-((2R,3aS,4R,9bS)-12-(cyclopropyl-methyl)-3a,8-dihydroxy-1,2,3,3a,4,5-hexahydro-4,9b-(epiminoethano)cyclo-penta[a]naphthalen-2-yl)benzamide]: at μ-opioid receptor [1], the Emax worked out at 1%. The compound also returned a 50% effective concentration (EC50) at μ-opioid receptor [1] (bound given in μM) of over 20 µM.

Take `O=C(NCCN1CCOCC1)[C@@H]1C[C@]23CCN(CC4CC4)[C@H](Cc4ccc(O)cc42)[C@]3(O)C1` [Compound 84, (2R,3aS,4R,9bS)-12-(cyclopropyl-methyl)-3a,8-dihydroxy-N-(2-morpholinoethyl)-1,2,3,3a,4,5-hexahydro-4,9b-(epimino-ethano)cyclopenta[a]naphthalene-2-carboxamide]: on μ-opioid receptor [1], the Emax is 19.7 ± 1.67% and the half-maximal effective concentration (EC50) is 0.0717 ± 0.0237 µM.

Turning to `O=C(NCc1cccnc1)[C@H]1C[C@]23CCN(CC4CC4)[C@H](Cc4ccc(O)cc42)[C@]3(O)C1` [Compound 92, (2S,3aS,4R,9bS)-12-(cyclopropylmethyl)-3a,8-dihydroxy-N-(pyridin-3-ylmethyl)-1,2,3,3a,4,5-hexahydro-4,9b-(epimino-ethano)cyclopenta[a]naphthalene-2-carboxamide], the Emax at μ-opioid receptor [1] was -1%. The EC50 at μ-opioid receptor [1] (bound given in μM) is over 20 µM.

`O=C(NCCCN1CCOCC1)[C@H]1C[C@]23CCN(CC4CC4)[C@H](Cc4ccc(O)cc42)[C@]3(O)C1` [Compound 91, (2S,3aS,4R,9bS)-12-(cyclopropylmethyl)-3a,8-dihydroxy-N-(3-morpholinopropyl)-1,2,3,3a,4,5-hexahydro-4,9b-(epimino-ethano)cyclopenta[a]naphthalene-2-carboxamide]: the Emax at μ-opioid receptor [1] is -1%. Also, the EC50 on μ-opioid receptor [1] (bound given in μM) is over 20 µM.

Regarding `O=C(NCCCN1CCOCC1)[C@@H]1C[C@]23CCN(CC4CC4)[C@H](Cc4ccc(O)cc42)[C@]3(O)C1` [Compound 85, (2R,3aS,4R,9bS)-12-(cyclopropyl-methyl)-3a,8-dihydroxy-N-(3-morpholinopropyl)-1,2,3,3a,4,5-hexahydro-4,9b-(epimino-ethano)cyclopenta[a]naphthalene-2-carboxamide], the Emax on μ-opioid receptor [1] is -1%. For the same compound, at μ-opioid receptor [1] (bound given in μM), the EC50 was over 20 µM.
